Data from US4247632A (Kikkoman Shoyu Co., Ltd., priority 1978, dated 1981).

Legend:
[1] = tested on: methylguanidine-decomposing enzyme; assay: Inhibition of the enzyme: residual activity after treatment with inhibitor; assay type: biochemical, Alcaligenes; conditions: for Residual activity of enzyme (%): activity without inhibitor = 100; for Inhibition of the enzyme (in words): conditions and concentrations of Table 1
Method: A substrate solution having a methylguanidine sulfate concentration of 100 μg/ml is prepared by dissolving methylguanidine sulfate into 0.05 M sodium carbonate-sodium bicarbonate buffer solution (pH 11.0). […] If a precipitate is formed, the precipitate is removed by centrifugation or filtration. Thus, an enzymatic reaction fluid is obtained.
Then, each 50 μl of the enzymatic reaction fluid or the control is mixed with 1.5 ml of 0.1 mM solution of phenanthraquinone in dimethylformamide and 0.25 ml of 1 M aqueous solution of sodium hydroxide and subjected to reaction at room temperature for 40-50 minutes, and then 0.25 ml of concentrated hydrochloric acid and 2.5 ml of water are added. Then, the relative fluorescence intensities of the resulted reaction mixtures are measured with a fluorophotometer at an exciting wave length of 310 nm and a fluorescence wave length of 390 nm. The decrease in methylguanidine content is calculated from the difference in fluorescence intensities between each reaction mixture for the enzymatic reaction and the control.
In the expression of activity, a quantity of enzyme enough to decompose 1 μ-mole of methylguanidine per 1 minute at 30° C. is defined as one unit.

[2] = tested on: methylguanidine-decomposing enzyme; assay: Stabilization of the enzyme; assay type: physicochemical, Alcaligenes; conditions: 10% (V/W) of glycerin added
Excerpt: The enzyme is stabilized by adding 10% (V/W) of glycerin to it.

[3] = tested on: methylguanidine-decomposing enzyme; assay: Action and substrate specificity of the enzyme; assay type: biochemical, Alcaligenes
Excerpt: This enzyme decomposes methylguanidine to form methylamine and urea: [drawing 1]
This enzyme exerts no action upon guanidoacetic acid (glycocyamine) and guanididosuccinic acid.

[4] = 1 mM inhibitor, 30° C., pH 9, 1 hour
[5] = 1 mM inhibitor, 30° C., pH 10, 60 minutes

Structure (SMILES)	Inhibition of the enzyme (in words) [1]	Action of the enzyme upon the substrate [3]	also measured
O[C@H](CS)[C@H](O)CS (racemic) [Dithiothreitol, dithiothreitol]	markedly inhibited	–	Residual activity of enzyme (%) [1, 4]: 0%
OCCS [2-Mercaptoethanol, 2-mercaptoethanol]	markedly inhibited	–	Residual activity of enzyme (%) [1, 4]: 0%
O=[N+]([O-])[O-].[Ag+] [AgNO3, silver nitrate]	markedly inhibited	–	Residual activity of enzyme (%) [1, 5]: 4%
[Cl][Hg][Cl] [HgCl2, mercurie chloride]	markedly inhibited	–	Residual activity of enzyme (%) [1, 5]: 0%
II [I2, iodine]	markedly inhibited	–	Residual activity of enzyme (%) ([1]; 1 mM I2, 40° C., pH 7, 1 hour): 0%
OCC(O)CO [glycerin]	–	–	Stabilization of the enzyme [2]: stabilized
N=C(N)NC(CC(=O)O)C(=O)O (centres unmarked) [guanididosuccinic acid]	–	no action	–
N=C(N)NCC(=O)O [guanidoacetic acid]	–	no action	–
CNC(=N)N [methylguanidine]	–	decomposes	–
